Assay [1] has as its system human THP-1 macrophages. Briefly: In vitro phagocytosis assay: opsonized human RBCs engulfed by peptide-treated THP-1 macrophages. In kind it is cell-based. The protocol:
(§1) In vitro phagocytosis assay. Fresh human RBCs were washed twice with 50 mM EDTA (Thermo Fischer) in PBS (Gibco) then twice with 5% FBS in PBS. RBCs were opsonized with 20 μg/mL rabbit anti-human RBC antibody (Rockland) in 5% FBS for 1 hour at RT with shaking. For CD47 blocked RBCs, 5 μg/mL of mouse anti-human CD47 (B6H12; BD Biosciences) were added. Thereafter, RBCs were washed with PBS three times and stained with PKH26 dye (1:800 dilution in PBS; Sigma) for 1 hour at RT with shaking in the dark. RBCs were washed and resuspended in PBS.
(§2) THP-1 monocytes were PMA differentiated in RPMI for 48 hours. Macrophages were then washed with RPMI media three times. For SIRPα blocked THP-1 macrophages, 20 nM, 1 μM or 50 μM of the nano—Self peptides were incubated with the THP-1 macrophages for 1 hour at 37 ° C., 5% CO2 and 95% humidity. Those THP-Is were then washed with RPMI three times.
(§3) CO2 and 95% humidity. Macrophages were then washed with RPMI three times. Adherent and uninternalized RBCs were lysed with water for 30 seconds followed by immediate replacement with RPMI media. In order to distinguish remaining adherent RBCs from internalized RBCs, opsonized RBCs were stained with AlexaFluor 647 donkey anti-rabbit (binds to rabbit polyclonal opsonin on RBC; Invitrogen) IgG (1:1000) while unopsonized, CD47 blocked RBCs were stained with AlexaFluor 647 donkey anti-mouse (binds to mouse monoclonal anti-CD47 on RBCs; Invitrogen) IgG (1:1000) for 30 minutes. After washing, macrophages were fixed with 4% formaldehyde for 15 minutes at RT, washed with PBS, stained with 1 μg/mL Hoechst 33342, and then washed with PBS again. Fluorescence imaging was performed as described elsewhere herein and quantification was done using ImageJ. At least 200 cells were analyzed and experiments were repeated at least three times.

For assay [2], the system named is human macrophages (opsonized K562 cancer cells). The assay can be described thus: Phagocytosis of opsonized K562 erythroleukemia cells by human macrophages. The assay is classed as cell-based. The protocol: as §1, §2, §3
The anti-RBC successfully opsonized and triggered phagocytosis of K562 cells by macrophages (FIGS. 2A, 2F and 2E). […] Interaction of the nS peptides with K562 cells is likely minimal due to the relative lack of SIRPα expression. […] For both opsonized RBCs and opsonized K562s (FIGS. 2D, 2F), the hyperphagocytosis that is achieved with soluble F- and V-nS peptides matches the recently measured increases for disruption of both (i) the trans interactions between CD47 on a target and macrophage SIRPα and also, importantly, (ii) the cis interactions between CD47 and SIRPα on the same macrophage (FIG. 2G-left). Expression profiling of macrophages confirms these cells generally express CD47 at roughly similar levels to other cell types (FIG. 15). […] A preliminary conclusion is that nS-FF and the other substituted peptides, which were designed to bind SIRPα, inhibit both the cis and trans interactions between SIRPα and CD47 ([…]).

For the next assay, the target named is T1, SIRPα (Homo sapiens, UniProt P78324).
T1 construct: THP-1 monocytes were PMA differentiated in RPMI for 48 h; endogenous in cells; host or cells: PMA-differentiated THP-1 macrophages
The assay can be described thus: CD47-Fc Inhibition Assay on THP-1 macrophages. The note with it: 1 μM or 50 μM peptide, 2 μg/mL CD47-Fc, anti-Fc fluorescence. In kind it is binding. The protocol:
CD47-Fc Inhibition Assay. THP-1 monocytes were PMA differentiated in RPMI for 48 h. The macrophages were washed with RPMI media and then incubated with 1 μM or 50 μM of nano- Self peptides for 1 h at 37° C., 5% CO2, and 95% humidity. After washing, the macrophages were incubated with Human Trustain FcX Fc receptor blocking solution (Biolegend) for 10 min at RT and then incubated with 2 μg/mL CD47-Fc fusion protein (ACRO Biosystems) for 1 h at 37° C., 5% CO2, and 95% humidity. As a negative control, B6H12 was pre-mixed with CD47-Fc at 4° C. on a rotator for 1 h. The macrophages were then washed and incubated with 0.5 μg/mL goat anti-human IgG Fc DyLight 488 (Thermo Fischer) for 1 h at 37° C., 5% CO2, and 95% humidity. Finally, the macrophages were washed, fixed, Hoechst 33342 stained, and imaged as described above.
To determine whether the nS peptides bind to SIRPα, nS-FF and nS-F4 were used as soluble competitive inhibitors of saturable CD47-Fc fusion protein binding to macrophages (FIG. 20). Addition of multivalent nS peptides was followed by Fc-receptor blockade to minimize Fc-driven binding of construct. Afterwards, CD47-Fc was added and then finally anti-Fc fluorescence imaging was performed (FIG. 20, left).

Another assay relates to THP-1 macrophages. Briefly: Peptide inhibition assay (competition with FAM-labeled nS-F on THP-1 macrophages). In kind it is binding, human. The note with it: pre-treatment with unlabeled peptide. The protocol: Peptide inhibition assay. THP-1 monocytes were PMA differentiated in RPMI for 48 hours. […] To measure background internalization of the FAM-labeled peptides, nS-X-FAM was used. To determine the efficacy of the bivalent peptides to inhibit SIRPα binding, nS-X was used. Excess peptides were washed off with PBS and cells were fixed with 4% formaldehyde for 15 minutes at RT, washed with PBS, stained with 1 μg/mL Hoechst 33342, and then washed with PBS again. Fluorescence imaging was performed as described elsewhere herein and quantification was done using ImageJ.

Assay [3] has as its system mouse bone marrow derived macrophages (BMDMs). The assay can be described thus: Phagocytosis of anti-TYRP1 opsonized B16F10 melanoma cells by mouse bone marrow derived macrophages. In kind it is cell-based. The note with it: 50 μM peptide. Here is the method:
B16F10 cells: Bone marrow cells were isolated from femurs and tibias of healthy C57BL6/J mice (The Jackson Laboratory) and cultured in 10-cm petri dishes containing IMDM (Gibco) supplemented with 10% v/v FBS, 1% v/v penicillin/streptomycin, and 1:10,000 macrophage colony stimulating factor cytokine (M-CSF; Biolegend) for 7 days at 37° C., 5% CO2 and 95% humidity. All animal experiments were performed according to protocols approved by the University of Pennsylvania's IACUC (protocol #805977 and #804455). The resulting mouse bone marrow derived macrophages (BMDMs) were washed with PBS containing Ca2^+/Mg2^+ (Gibco) then detached with 0.25% trypsin-EDTA (Gibco) and re-plated in 6-well tissue culture plates using IMDM+M-CSF for 24 hours.
Mouse melanoma B16F10 cells were washed with PBS containing Ca2-/Mg2- and then trypsinized with 0.05% trypsin-EDTA. After washing twice with PBS, the cells were labeled with 1:10,000 CFDA—SE (Thermo Fisher) in PBS for 10 minutes. B16F10 cells were opsonized with 10 μg/mL anti-TYRP1 (TA99; Bio X Cell) in PBS for 2 hours at 4° C.with occasional inverting. For CD47 blocked B16F10 cells, 5 μg/mL of […] were added. During the incubation time, the BMDMs were washed with media then stained with 1:2,000 CellTracker Deep Red (Thermo Fisher) in PBS with Ca2^+/Mg2^+ for 10 min. After washing, 50 μM of the nano—Self peptides were incubated with the BMDMs for 1 hour at 37° C., 5% CO2 and 95% humidity. Finally, BMDMs were washed twice with PBS and then twice with serum-free IMDM.
Without removing the supernatant, the opsonized melanoma cells were added to the labeled BMDMs at a ratio of 2:1 for 2 hours at 37° C., 5% CO2 and 95% humidity. During the last 15 minutes of the assay, the cells were Hoechst stained. The wells were washed with serum free IMDM then fixed with 4% formaldehyde for 15 minutes at RT, and PBS washed. Fluorescence imaging was performed using an Olympus IX71 with a digital EMCCD camera (Cascade 512B) and a 40×/0.6 NA objective. Quantification was done with ImageJ (NIH). At least 200 cells were analyzed and two-tailed student's t-test was used to determine statistical significance.

Assay [4] deals with mouse J774A.1 macrophages. Briefly: In vitro phagocytosis assay: opsonized human RBCs engulfed by mouse J774A.1 macrophages. In kind it is cell-based. The protocol:
as §3, with “In vitro phagocytosis assay. […] For CD47 blocked RBCs, 5 μg/mL of mouse anti-human CD47 (B6H12; BD Biosciences) were added. Thereafter, RBCs were washed with PBS three times and stained with PKH26 dye (1:800 dilution in PBS; Sigma) for 1 hour at RT with shaking in the dark. RBCs were washed and resuspended in PBS. J774A.1 macrophages were plated for 24 hours in RPMI. For SIRPα blocked J774A.1 macrophages, the same peptide blocking procedure as described elsewhere herein was used with the addition of a positive control using 5 μg/mL rat anti-mouse SIRPα ([…]; BD Biosciences). […] CO2” for “CO2”

Assay [5] relates to human THP-1 macrophages. Briefly: Residual adhesion of opsonized RBCs to macrophages. The note with it: 50 μM peptide. The assay is classed as cell-based. The text has this: To measure the residual adhesion of RBCs and distinguish it from internalization by macrophages, the engulfment assay with human RBCs used a secondary antibody against the opsonizing IgG, which allowed us to clearly see RBCs in contact with macrophages that are not internalized (FIG. 29C). The cells are also firmly attached to the macrophages because the culture dishes were rinsed after fixation and secondary antibody labeling. […] All of the RBCs in these samples are equally opsonized with IgG that binds Fc-receptors (FcR's) on macrophages, and so differences in measured adhesion implicate differences in the CD47—SIRPα interaction.

“Also recorded” adds a separate entry of the source.

Consider ((VTELFREG-PEG5)2-K)2-K [nS-F4], for which the “effect on phagocytosis of opsonized RBCs (words)” value (“effect on phagocytosis … (words)” for short) in the assay with human THP-1 macrophages [1] (20 nM peptide) was “more potent in enhancing phagocytosis”. Also, the “increase of phagocytosis relative to opsonized and CD47 blocked K562 cells” value in assay [2] (saturating peptide) is listed as “nearly doubled; also recorded: about two-fold”. In addition, the “macrophages engulfing opsonized K562 cells at saturation” value in assay [2] (saturation) is on record as around 40%. For the same substance, the “level of inhibition of CD47-Fc binding” value with SIRPα was “as inhibitory as anti-CD47”. In the assay on THP-1 macrophages, the “inhibition of monovalent nS-F-FAM binding to macrophages” value is listed as “more potent in inhibiting monovalent nS-F-fluor association with macrophages than bivalent nS-FF”.

As for “(LETVEGTR-PEG5)2-K (LETVEGTRKRTGEVTEL; bivalent, PEG5 linkers, lysine core; nS-XX; (8)..(9) 5x PEG linker between residues; (9)..(10) 5x PEG linker between residues) [bivalent scrambled control]”, in the assay with human THP-1 macrophages [1] (saturating / 50 μM peptide), the “effect on phagocytosis … (words)” value is listed as “unaffected; also recorded: do not affect baseline engulfment of opsonized RBCs; also recorded: do not have effects on phagocytosis”. Further, in assay [2], the “effect on phagocytosis of opsonized K562 cells” value is recorded as “unaffected; also recorded: only opsonization effect observed”. The “level of inhibition of CD47-Fc binding” value in the assay with SIRPα is reported as 0.

With “CVTELFREGC (HELM PEPTIDE1{C.V.T.E.L.F.R.E.G.C.[am]}$PEPTIDE1,PEPTIDE1,1:R3-10:R3$$$V2.0; N-terminus assumed; SMILES CC(C)C[C@@H]1NC(=O)[C@H](CCC(=O)O)NC(=O)[C@H]([C@@H](C)O)NC(=O)[C@H](C(C)C)NC(=O)[C@@H](N)CSSC[C@@H](C(N)=O)NC(=O)CNC(=O)[C@H](CCC(=O)O)NC(=O)[C@H](CCCNC(=N)N)NC(=O)[C@H](Cc2ccccc2)NC1=O) [nS-F-Cyc, cyclic variant of nS-F]”, the “effect on phagocytosis … (words)” value in the assay with human THP-1 macrophages [1] (saturating / 50 μM peptide) is listed as “Maximum levels of phagocytic macrophages”. The “increase of macrophage phagocytosis relative to nS-wt” value in the assay on human THP-1 macrophages [1] (saturating peptide) was “roughly 25%”. The “effect on phagocytosis of opsonized WT and SIRPα KO B16 cells” value in assay [3] is reported as “Maximum levels of phagocytic macrophages”.

“(VTELVREG-PEG5)2-K (VTELVREGKGERVLETV; bivalent, PEG5 linkers, lysine core; nS-VV; (8)..(9) 5x PEG linker between residues; (9)..(10) 5x PEG linker between residues) [bivalent nS-V]”: the “effect on phagocytosis … (words)” value with human THP-1 macrophages [1] (20 nM peptide) is on record as “successful in activating THP-1 to engulf opRBCs”; with human THP-1 macrophages [1] (saturating / 50 μM peptide), “activity profiles in phagocytosis assays that are similar to the monovalent nS-F”. Besides, in the assay with THP-1 macrophages, the “inhibition of monovalent nS-F-FAM binding to macrophages” value is “further decreased”.

With “CVELTREGC (HELM PEPTIDE1{C.V.E.L.T.R.E.G.C.[am]}$PEPTIDE1,PEPTIDE1,1:R3-9:R3$$$V2.0; N-terminus assumed; SMILES CC(C)C[C@@H]1NC(=O)[C@H](CCC(=O)O)NC(=O)[C@H](C(C)C)NC(=O)[C@@H](N)CSSC[C@@H](C(N)=O)NC(=O)CNC(=O)[C@H](CCC(=O)O)NC(=O)[C@H](CCCNC(=N)N)NC(=O)[C@H]([C@@H](C)O)NC1=O) [nS-Cyc]”, the “effect on phagocytosis … (words)” value was “greater effect in perturbing the CD47-SIRPα interaction compared to linear nS-wt; also recorded: slightly higher levels than opsonized and anti-CD47 blocked RBCs; also recorded: Maximum levels of phagocytic macrophages” in the assay with human THP-1 macrophages [1] (saturating / 50 μM peptide); “slightly higher levels than opsonized and anti-CD47 blocked RBCs” in assay [4] (saturating / 50 μM peptide). In assay [4] (mouse macrophages, opsonized RBCs), the “fold more active than the linear counterpart” value was “roughly 20 fold”. Moreover, in assay [3], the “effect on phagocytosis of opsonized WT and SIRPα KO B16 cells” value is recorded as “Maximum levels of phagocytic macrophages”. In addition, the “residual adhesion of opsonized RBCs to macrophages” value in the assay on human THP-1 macrophages [5] is listed as “lowest amount of residual adhesion to macrophages”.

(Values after patent publication US20240158448A1, “MULTIVALENT NANO-'SELF' PEPTIDES AND USES THEREOF” (THE TRUSTEES OF THE UNIVERSITY OF PENNSYLVANIA, priority 2021, published 2024).)
